Key:
[1] = tested on: VSMC collagenase secretion; experiment: Gelatinase zymography of Boyden assay supernatants; assay type: cell-based, rat; conditions: taxol range 30 pM to 100 nM
Experimental: Gelatinase zymography was performed on the superannuates removed after the 4 hour conclusion of the Boyden assays described above. Gelatin-degrading proteinases secreted into the media by VSMCs were analyzed by non-reducing sodium dodecyl sulfate-polyacrylamide gel electrophoresis in 10% polyacrylamide gels containing 0.1% (w/v) gelatin. Following electrophoresis, the gelatinases were renatured by incubating the gel for 30 min. at 23° C. in 2.5% (v/v) Triton X-100 followed by 18 hour incubation at 37° C. in 0.2 M NaCl, 5 mM CaCl2 0.02% Brij 35 (w/v), 50 mM Tris-HCI (pH 7.6). The gels were stained for 90 minutes with 0.5% Coomassie Brilliant Blue G-250 and destained with 10% acetic acid, 40% methanol. Gelatinolytic activity was indicated by a clear band against the background of the blue-stained gelatin.

c-fos mRNA expression = experiment: PDGF-BB-stimulated c-fos mRNA expression in cultured VSMC; assay type: cell-based, rat
VSMC [2] = experiment: Chemotaxis assay (Boyden chamber without basement membrane proteins), PDGF-BB as attractant; assay type: cell-based, rat; conditions: filter coated only with fibronectin and collagen I
Experimental: Chemoinvasion (Boyden chamber) assays were performed using modified Boyden chamber (Albini, et al. (1987) Cancer Res., 47:3239-3245), comprising an upper chamber separated from a lower chamber by a porous PVPF filter. PVPF filters (8 μm pore diameter, Nucleopore Filters, Pleasanton, Calif.) were coated and air dried consecutively with solutions containing 100 μg/ml type I collagen, 5 μg/ml fibronectin, and 5 μg reconstituted basement membrane (produced from the Englebreth-Holm-Swarm tumor (Kleinman, et al. (1986) Biochemistry, 25:312-318), producing a continuous 10 μm thick coating of matrix material. Boyden chambers were assembled by adding 10 ng/ml PDGF BB in DMEM to the lower (chemoattractant) chamber. Cells (approximately 200,000) suspended in DMEM containing 0.1% BSA were then added to the upper chamber. […] The chambers were then incubated for 4 hours at 37° C. in a 5% CO2 atmosphere. At the end of the incubation period, the cells were fixed and stained with hematoxylin and eosin. The cells on the upper surface (non-invaders) were mechanically removed and the cells on the underside of the filter (invaders) were counted under 400× magnification (four random fields were counted per filter and all experiments were run in triplicate, and each triplicate assay was repeated at least three times on separate occasions using different VSMC preparations). […]

[3] = tested on: Vascular Smooth Muscle Cells (VSMCs); experiment: Chemoinvasion (Boyden chamber) assay, PDGF-BB as attractant; assay type: cell-based, rat
Experimental: Vascular Smooth Muscle Cells (VSMCs) were isolated by collagenase/elastase enzymatic digestion of the medial layers of the rat aorta obtained from 6 month old Wistar rats. The cells were maintained in culture with 10% fetal calf serum, high glucose DMEM, and amino acid supplement. Cell cultures were maintained at 37° C. in 5% CO2.
Chemoinvasion (Boyden chamber) assays were performed using modified Boyden chamber (Albini, et al. (1987) Cancer Res., 47:3239-3245), comprising an upper chamber separated from a lower chamber by a porous PVPF filter. PVPF filters (8 μm pore diameter, Nucleopore Filters, Pleasanton, Calif.) were coated and air dried consecutively with solutions containing 100 μg/ml type I collagen, 5 μg/ml fibronectin, and 5 μg reconstituted basement membrane (produced from the Englebreth-Holm-Swarm tumor (Kleinman, et al. (1986) Biochemistry, 25:312-318), producing a continuous 10 μm thick coating of matrix material. Boyden chambers were assembled by adding 10 ng/ml PDGF BB in DMEM to the lower (chemoattractant) chamber. Cells (approximately 200,000) suspended in DMEM containing 0.1% BSA were then added to the upper chamber. […] The chambers were then incubated for 4 hours at 37° C. in a 5% CO2 atmosphere. At the end of the incubation period, the cells were fixed and stained with hematoxylin and eosin. The cells on the upper surface (non-invaders) were mechanically removed and the cells on the underside of the filter (invaders) were counted under 400× magnification (four random fields were counted per filter and all experiments were run in triplicate, and each triplicate assay was repeated at least three times on separate occasions using different VSMC preparations). Chemotaxis was assayed in analogous fashion in the Boyden chambers described above, except that the reconstituted basement membrane was omitted.
VSMC's were isolated by collagense/elastase enzymatic digestion of the medial layers of the rat aorta obtained from 6 month old Wistar rats. The cells were maintained in culture with 10% fetal calf serum, high glucose DMEM, and amino acid supplement. Cell cultures were maintained at 37° C. in 5% CO2.
Chemoinvasion assays were performed using a modified Boyden chamber, consisting of an upper chamber separated from a lower chamber by a porous PVPF filter. PVPF filters (8 μm pore diameter, Nucleopore Filters Pleasanton, Calif.) were coated and air dried consecutively with solutions containing 100 μg/ml type I collagen, […] fibronectin, and 5 μg reconstituted basement membrane (produced from the Englebreth-Holm-Swarm tumor), producing a continuous 10 μm thick coating of matrix material. Boyden chambers were assembled with PDGF-BB 10 ng/ml in DMEM in the lower (chemoattractant) chamber, then cells (approximately 200,000) suspended in DMEM containing 0.1% BSA were added to the upper chamber. Some of the cells used in these assays were pretreated 18 hours with deuterium oxide (25%, 50%, or 75% v/v substitution for H2O) in culture. In the deuterium oxide-treated groups, ^2H2O substituted DMEM (v/v) was added to the upper and lower chambers at the same concentration as that used for pretreatment. The chambers were then incubated for 4 hours at 37° C. in a humidified 5% CO2 atmosphere. […] After the cells on the upper surface of the filter (non-invaders) were mechanically removed, the cells on the underside (invaders) were counted under 400 X magnification (four random fields were counted per filter and all experiments were run in triplicate).

VSMC [4] = experiment: [3H]thymidine incorporation in cultured VSMC
polymerized tubulin = experiment: Microtubule bundling in cultured VSMC (anti-tubulin antibody labelling); assay type: cell-based, rat
From the text: In deuterium oxide-treated cells, ^2H2O (v/v) was substituted for water (H2O) in the preparation of the DMEM from concentrated stock. […], cells were fixed in 3.7% formalin, premeabilized with 1% Triton X-100, and polymerized tubulin was labelled with mouse anti-β-tubulin antibody (SMI 62 monoclonal antibody to polymerized β-tubulin, Paragon Biotec, Inc., Baltimore, Md.). […] Representative light photomicrographs from (FIG. 5A) control, and (FIG. 5B) 75% deuterium oxide treated VSMCs are shown in FIGS. 5A-5B.

rat carotid artery = experiment: Balloon catheter injury of the rat carotid artery (restenosis model); assay type: in vivo, Wistar rats
Experimental: Under a protocol approved by the National Institute on Aging Animal Care and use Committee, 6 month Wistar rats from the GRC colony wee anesthetized with 20 mg/kg body weight phenobarbital, 2 mg/kg body weight ketamine, and 4 mg/kg body weight xylazine intraperitoneally. The left external carotid artery was cannulated with 2-French Fogarty embolectomy catheter, inflated with saline and passed three times up and down the common carotid artery to produce a distending, deendothelializing injury. […] Cross sections of the carotids were mounted on microscope slides and stained with hematoxylin and eosin stain. The image of the carotid artery was projected onto a digitizing board and the cross sectional areas of the intima and the media were measured. As indicated in the prior art (Ferns, G. A. A. et al. (1991) Science, 253:1129-1132) the rat carotid artery injury model of restenosis can be useful in the study of human restenosis, and indicate potential therapeutic action in humans.

VSMC [5] = experiment: Bromodeoxyuridine (BrDU) incorporation in cultured VSMC; assay type: cell-based, rat; conditions: various 2H2O concentrations
Experimental: Incorporation of the thymidine analog, bromodeoxyuridine (BrDU) was measured to determine the effect of deuterium oxide on VSMC DNA synthesis. […] Following 20 hr incubation in 10% FCS+DMEM at various ^2H2O concentrations, 10 μM BrDU was added and the incubation continues for an additional 4 hr. […] The cells were incubated for 2 hr with 1N HCl to denature the DNA, and subsequently washed 4 times in PBS. Mouse monoclonal BrDU antibody (Boehringer Mannheim) in 2% BSA-PBS was incubated with cells for 1 hr. After PBS wash, goat anti-mouse antibody conjugated with alkaline phosphatase was added. Cell nuclei containing BrDU substituted for thymidine stained red with alkaline phosphatase substrate, while all other nuclei stained blue. The fraction of BrDU-positive nuclei was compared between control (defined as 100%) and that of the deuterium oxide-pretreated groups.

[6] = cross sectional area, 2 mg/kg i.p., 11 days after injury

| SMILES | level of VSMC collagenase secretion compared to control [1] | IC50 (c-fos mRNA expression; Rattus norvegicus, cultured VSMC, read-out: half-maximal inhibitory concentration, PDGF-BB-stimulated c-fos mRNA expression) | inhibition of c-fos mRNA expression above 20 nM (c-fos mRNA expression; above 20 nM taxol) | outcome of chemotaxis assay compared with chemoinvasion assay (VSMC [2]) | inhibition of VSMC invasion at 30 pM ([3]; 30 pM (the lowest dose used)) | inhibition of VSMC invasion at 100 nM ([3]; 100 nM taxol) | IC50 ([3]; Rattus norvegicus, VSMC, 18 h pretreatment, PDGF-BB attractant, 4 h incubation, read-out: half-maximal inhibitory concentration, VSMC invasion) | inhibition of [3H]thymidine incorporation at 1 nM (VSMC [4]; 1 nM taxol) | inhibition of [3H]thymidine incorporation at 100 nM (VSMC [4]; 100 nM taxol) | IC50 (VSMC [4]; Rattus norvegicus, VSMC, read-out: half-maximal inhibitory concentration, VSMC [3H]thymidine incorporation) | microtubule bundling in VSMC's cultured on plastic (polymerized tubulin; 0.1, 1, 10 nM taxol, 18-hour pre-treatment) | reduction of neointimal area compared to vehicle treated animals (rat carotid artery; 2 mg/kg i.p. once daily, 11 days after injury) | Intima (rat carotid artery; [6]) | Media (rat carotid artery; [6]) | I/M (rat carotid artery; intima/media ratio, 2 mg/kg i.p., 11 days after injury) | discernible neointima in taxol-treated animals (rat carotid artery; several of the taxol-treated animals, denuded endothelium present) | inhibition of VSMC Boyden chamber invasion at 75% 2H2O ([3]; 75% 2H2O) | half-maximal inhibition of PDGF-mediated VSMC Boyden chamber invasion ([3]; 18 h pretreatment, v/v substitution for H2O) | effect on cultured VSMC proliferation and DNA synthesis (BrDU incorporation) (VSMC [5]) | microtubule hyperpolymerization in cultured VSMCs (polymerized tubulin; 18 hours with 25%, 50% or 75% deuterium oxide) |
| --- | --- | --- | --- | --- | --- | --- | --- | --- | --- | --- | --- | --- | --- | --- | --- | --- | --- | --- | --- | --- |
| CC(=O)O[C@H]1C(=O)[C@@]2(C)[C@H]([C@H](OC(=O)c3ccccc3)[C@]3(O)C[C@H](OC(=O)[C@H](O)[C@@H](NC(=O)c4ccccc4)c4ccccc4)C(C)=C1C3(C)C)[C@]1(OC(C)=O)CO[C@@H]1C[C@@H]2O [Taxol] | did not vary significantly | 1 nM | essentially complete inhibition | identical outcome | significant inhibition | essentially complete inhibition | 0.5 nM | significant inhibition | essentially complete inhibition | 5 nM | dose-dependent microtubule bundling | 70% | 0.03 ± 0.01 mm^2 | 0.16 ± 0.02 mm^2 | 0.18 ± 0.04 | virtually no discernible neointimal | – | – | – | – |
| [2H]O[2H] [deuterium oxide] | – | – | – | – | – | – | – | – | – | – | – | – | – | – | – | – | nearly complete inhibition | 25 % 2H2O | inhibited cultured VSMC proliferation and DNA synthesis in a dose-dependent fashion | dose-dependent microtubule hyperpolymerization |
